{
  "source": "patent US20230034248A1",
  "about": "“PLANT STOMATA OPENING PROMOTING AGENT” (OAT Agrio Co., Ltd., priority 2019, published 2023)",
  "key": {"[1]": {"test_system": "lower epidermis of Commelina benghalensis L.", "assay": "Stomatal opening promoting activity in a dark place (stomatal aperture of peeled lower epidermis)", "assay_type": "cell-based", "conditions": "for Stomatal Aperture: dark place 3 hours", "protocol": "(§1) The lower epidermis of Commelina benghalensis L. was peeled off, immersed in the stomatal aperture measurement solution, and allowed to stand still in a dark place for 2 hours. Then, the lower epidermis of Commelina benghalensis L. was immersed in test solutions prepared by adding steviol to the stomatal aperture measurement solution to give 100 or 300 μM (final concentration) or in the stomatal aperture measurement solution without the addition of steviol (Comparative Example 1), and allowed to stand still in a bright place for 3 hours. The lower epidermis of Commelina benghalensis L. after immersion in the test solutions was photographed with a digital camera (LCD (Liquid Crystal Display), manufactured by KENIS LIMITED) attached to a microscope (Olympus BH2; objective lens SPlan 10 [manufactured by Olympus Corporation] magnification 200×). The stomatal aperture was measured with measurement software (digital microanalyzer, manufactured by Nippon Polaroid Corporation; Polaroid is the registered trademark). The stomatal aperture was measured for 80 or more stomata, for each addition concentration. The stomatal aperture obtained at each addition concentration was compared with the stomatal aperture obtained without the addition of steviol (0 μM, Comparative Example 1), and statistical analysis was performed by student's t-test.\n(§2) The lower epidermis of Commelina benghalensis L. that had been peeled off was immersed in the stomatal aperture measurement solution, and allowed to stand still in a dark place for 2 hours. Then, the lower epidermis of Commelina benghalensis L. was immersed in test solutions prepared by adding steviol to the stomatal aperture measurement solution to give 200 or 300 μM (final concentration) or in the stomatal aperture measurement solution without the addition of steviol (Comparative Example 4), and allowed to stand still in a dark place for 3 hours. Then, the stomatal aperture was measured as in Example 1.\nas §2, with “stevioside” for “steviol”, “give 100,” for “give”, “5),” for “4),”\nas §2, with “rebaudioside A” for “steviol”, “10, 100, 300,” for “200”, “500” for “300”, “6),” for “4),”\nas §2, with “FARM A” for “steviol”, “a 2,000-, 1,000-,” for “200”, “500-fold dilution” for “300 μM”, “7),” for “4),”"}, "[2]": {"test_system": "lower epidermis of Commelina benghalensis L.", "assay": "Abscisic acid-induced stomatal closure inhibitory activity, first evaluation (stomatal aperture of peeled lower epidermis)", "assay_type": "cell-based", "conditions": "for Stomatal Aperture: 2 hours", "protocol": "as §1\nThe lower epidermis of Commelina benghalensis L. was peeled off, immersed in the stomatal aperture measurement solution, and allowed to stand still in a bright place for 3 hours. Then, the lower epidermis of Commelina benghalensis L. was immersed in test solutions prepared by adding 10 μM (final concentration) of abscisic acid and 400 or 600 μM of steviol to the stomatal aperture measurement solution or in the stomatal aperture measurement solution without the addition of steviol (Comparative Example 8) prepared by adding 10 μM (final concentration) of abscisic acid alone, and allowed to stand still for 2 hours. Then, the stomatal aperture was measured as in Example 1.\n(§3) The lower epidermis of Commelina benghalensis L. was peeled off, immersed in the stomatal aperture measurement solution, and allowed to stand still in a bright place for 3 hours. Then, the lower epidermis of Commelina benghalensis L. was immersed in test solutions prepared by adding 10 μM (final concentration) of abscisic acid and 300 or 800 μM (final concentration) of stevioside to the stomatal aperture measurement solution or in the stomatal aperture measurement solution without the addition of stevioside (Comparative Example 9) prepared by adding 10 μm (final concentration) of abscisic acid alone, and allowed to stand still for 2 hours. Then, the stomatal aperture was measured as in Example 1.\nas §3, with “100, 300,” for “300”, “500” for “800”, “rebaudioside A” for “stevioside”, “10)” for “9)”\nThe lower epidermis of Commelina benghalensis L. was peeled off, immersed in the stomatal aperture measurement solution, and allowed to stand still in a bright place for 3 hours. […]"}, "[3]": {"conditions": "addition concentration 300 μM with 10 μM abscisic acid"}},
  "data": [
    {"smiles": "C=C1C[C@@]23CC[C@H]4[C@@](C)(CCC[C@@]4(C)C(=O)O[C@@H]4O[C@H](CO)[C@@H](O)[C@H](O)[C@H]4O)[C@@H]2CC[C@]1(O[C@@H]1O[C@H](CO)[C@@H](O)[C@H](O[C@@H]2O[C@H](CO)[C@@H](O)[C@H](O)[C@H]2O)[C@H]1O[C@@H]1O[C@H](CO)[C@@H](O)[C@H](O)[C@H]1O)C3", "note": "[rebaudioside A]", "values": [
      {"measurement": "Stomatal Aperture", "setting": "[1]; addition concentration 10 μM", "value": "8.70 ± 0.39", "unit": "μm"},
      {"measurement": "Stomatal Aperture", "setting": "[1]; addition concentration 100 μM", "value": "9.53 ± 0.45", "unit": "μm"},
      {"measurement": "Stomatal Aperture", "setting": "[1]; addition concentration 300 μM", "value": "11.46 ± 0.55", "unit": "μm"},
      {"measurement": "Stomatal Aperture", "setting": "[1]; addition concentration 500 μM", "value": "9.05 ± 0.40", "unit": "μm"},
      {"measurement": "stomatal aperture as compared to without the addition (student's t-test)", "setting": "[1]; every concentration (10, 100, 300, 500 μM), dark place", "value": "statistically significant increase in the stomatal aperture"},
      {"measurement": "stomatal aperture as compared to without the addition (student's t-test)", "setting": "[2]; 100, 300, or 500 μM with 10 μM abscisic acid", "value": "statistically significant increase in the stomatal aperture"},
      {"measurement": "Stomatal Aperture", "setting": "[2]; addition concentration 100 μM with 10 μM abscisic acid", "value": "7.74 ± 2.90", "unit": "μm"},
      {"measurement": "Stomatal Aperture", "setting": "[2]; [3]", "value": "9.85 ± 2.57", "unit": "μm"},
      {"measurement": "Stomatal Aperture", "setting": "[2]; addition concentration 500 μM with 10 μM abscisic acid", "value": "9.32 ± 2.69", "unit": "μm"}
    ]},
    {"smiles": "C=C1C[C@@]23CC[C@H]4[C@@](C)(CCC[C@@]4(C)C(=O)O[C@@H]4O[C@H](CO)[C@@H](O)[C@H](O)[C@H]4O)[C@@H]2CC[C@]1(O[C@@H]1O[C@H](CO)[C@@H](O)[C@H](O)[C@H]1O[C@@H]1O[C@H](CO)[C@@H](O)[C@H](O)[C@H]1O)C3", "note": "[stevioside]", "values": [
      {"measurement": "stomatal aperture as compared to without the addition", "setting": "[1]; 100, 200 or 300 μM, dark place", "value": "an increase in the stomatal aperture"},
      {"measurement": "stomatal aperture as compared to without the addition (student's t-test)", "setting": "[1]; 100 or 200 μM, dark place", "value": "statistically significant increase in the stomatal aperture"},
      {"measurement": "Stomatal Aperture", "setting": "[1]; addition concentration 100 μM", "value": "6.83 ± 0.23", "unit": "μm"},
      {"measurement": "Stomatal Aperture", "setting": "[1]; addition concentration 200 μM", "value": "7.33 ± 0.31", "unit": "μm"},
      {"measurement": "Stomatal Aperture", "setting": "[1]; addition concentration 300 μM", "value": "5.81 ± 0.20", "unit": "μm"},
      {"measurement": "stomatal aperture as compared to without the addition (student's t-test)", "setting": "[2]; 300 or 800 μM with 10 μM abscisic acid", "value": "statistically significant increase in the stomatal aperture"},
      {"measurement": "Stomatal Aperture", "setting": "[2]; [3]", "value": "7.03 ± 0.39", "unit": "μm"},
      {"measurement": "Stomatal Aperture", "setting": "[2]; addition concentration 800 μM with 10 μM abscisic acid", "value": "6.49 ± 0.32", "unit": "μm"}
    ]},
    {"smiles": "C=C1C[C@@]23CC[C@H]4[C@@](C)(CCC[C@@]4(C)C(=O)O)[C@@H]2CC[C@]1(O)C3", "note": "[steviol]", "values": [
      {"measurement": "stomatal aperture as compared to without the addition (student's t-test)", "setting": "[1]; 200 or 300 μM, dark place", "value": "statistically significant increase in the stomatal aperture"},
      {"measurement": "Stomatal Aperture", "setting": "[1]; addition concentration 200 μM", "value": "15.00 ± 0.32", "unit": "μm"},
      {"measurement": "Stomatal Aperture", "setting": "[1]; addition concentration 300 μM", "value": "11.94 ± 0.42", "unit": "μm"},
      {"measurement": "stomatal aperture as compared to without the addition (student's t-test)", "setting": "[2]; 400 or 600 μM with 10 μM abscisic acid", "value": "statistically significant increase in the stomatal aperture"},
      {"measurement": "Stomatal Aperture", "setting": "[2]; addition concentration 400 μM with 10 μM abscisic acid", "value": "10.65 ± 0.48", "unit": "μm"},
      {"measurement": "Stomatal Aperture", "setting": "[2]; addition concentration 600 μM with 10 μM abscisic acid", "value": "13.27 ± 0.49", "unit": "μm"}
    ]}
  ]
}
